Literature values as cited in patent publication US8129131B2, “Pin1 as a marker for abnormal cell growth” (Beth Israel Deaconess Medical Center, priority 1999, dated 2012).

Tested on: Pin1 or its WW domain
Settings: pre-incubation with various peptide concentrations before mitotic extracts; concentration-dependent

Sequence of Pin1 or its WW domain (Q13526 1-39 limits assumed): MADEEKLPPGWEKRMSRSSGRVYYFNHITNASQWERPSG

For WFYpSPRLKK [Pintide], the “phosphoprotein-binding activity of Pin1 or its WW domain” value is given as “significantly reduced”.
